Assay results from paper PMC6154694, “Absorption, Metabolic Stability, and Pharmacokinetics of Ginger Phytochemicals” (Molecules : A Journal of Synthetic Chemistry and Natural …, 2017).

Columns and labels:
[1] = Mouse pharmacokinetic study of oral GE with and without ketoconazole, plasma with and without β-glucuronidase treatment; type: in vivo, male mice (C57BL6J); conditions: for Concentration Ratio (Total/Free) of GE Phenolics: GE administered group; for Concentration Ratio (Total/Free) of GE Phenolics / concentration at 0 h / concentration at 0.087 h / concentration at 0.167 h / concentration at 0.25 h / concentration at 0.5 h / concentration at 1 h / concentration at 2 h / concentration at 3 h / concentration at 4 h / concentration at 6 h / concentration at 8 h / concentration at 12 h: mouse plasma; for AUC(0-t) / Cmax / Tmax / concentration at 0 h / concentration at 0.087 h / concentration at 0.167 h / concentration at 0.25 h / concentration at 0.5 h / concentration at 1 h / concentration at 2 h / concentration at 3 h / concentration at 4 h / concentration at 6 h / concentration at 8 h / concentration at 12 h: male, C57BL6J; for AUC(0-t) / Cmax / Tmax: mouse, plasma, po, 250 mg/kg
Procedure: A solution formulation of GE was prepared by using 5% ethanol, 5% Tween 80, 40% polyethylene glycol, and 50% corn oil. The dose volume was 10 mL/kg and the dose administered was 250 mg/kg GE.
Pharmacokinetic study in male mice (C57BL6J, Harlan Laboratories, Indianapolis, IN, USA) was run with 36 animals in each group at a GE dose of 250 mg/kg with a dose volume of 10 mL/kg. One group was given GE alone and in the second group GE was co-administered with KTZ (50 mg/kg). A terminal sampling design was used to collect blood samples at 0 (pre-dose), 0.08, 0.16, 0.25, 0.5, 1, 2, 3, 4, 6, 8, and 12 h. At each time, 1 mL of blood was collected in ethylenediaminetetraacetic acid di-potassium salt (K2EDTA) tubes (BD Biosciences, Franklin Lakes, NJ, USA). Plasma was separated by centrifugation of samples at 4000 rpm for 10 min and stored below −60 °C till bioanalysis. All experiments were performed with approval from the Institutional Animal Care and Use Committee (IACUC, approval code: A14031). All animals were acclimatized for five days before dosing in the experimental area. Food and water was provided ad libitum throughout the study period. Animals were marked and housed (three per cage, n = 36 per group) in polypropylene cages and maintained in controlled environmental conditions with 12 h light and dark cycles. The temperature and humidity of the room was maintained between 22 ± 3 °C and 30% to 50%, respectively, and approximately 10–12 fresh air change cycles per hour.
To confirm the presence of GE glucuronide conjugates, plasma (100 μL) was treated with βgd (20 μL, 500 units) and incubated at 37 °C for 1 h. Each sample was analyzed twice with and without β-gd treatment. Samples without gde treatment were diluted with 20 μL of buffer. Total (conjugated + free) and free ginger phenolics data were reported following bioanalysis.
All in vitro and in vivo samples were processed by protein precipitation method. An aliquot (100 μL) of the sample was spiked with 200 μL of acetonitrile containing dihydrocapsaicin as internal standard (IS) and vortex mixed for 3 min. The tubes were centrifuged at 12,000 rpm for 10 min and an aliquot of supernatant was transferred into autosampler vials for analysis. The stock solutions of 6G, 8G, 10G, and 6S were prepared in ACN/water (70:30) at 1 mg/mL. A calibration curve (CC) range of 2–2000 ng/mL was employed for the quantification of analytes and IS concentration was 150 ng/mL for each analysis. The CC consisted of blank, blank with IS and seven non-zero calibration standards. The calibration standards were within ±15% of the nominal concentration and lower limit of quantification was within ±20% of nominal. All samples were analyzed using liquid chromatography tandem mass spectrometry (LC-MS/MS) method (Agilent 6410 series, Santa Clara, CA, USA). A positive ionization mode with multiple reaction monitoring (MRM, m/z Q1/Q3) of 6G (m/z 277.1/177.1, retention time (RT) 2.0 min), 8G (m/z 305.1/177.1, RT 4.0 min), 10G (m/z 333.1/177.1, RT 7.7 min), 6S (m/z 277.1/137.1, RT 5.1 min), and IS (m/z 308.2/137.1, RT 3.4 min) was employed. The ion spray voltage was set at 3500 V, ionization temperature was set to 300 °C and drying gas flow rate was 10 L/min. Data acquisition and quantitation were performed using Mass Hunter software (Agilent Technologies, Wilmington, DE, USA). Separation was achieved using HP1100 series LC (Agilent Technologies) with an Agilent Zorbax reversed-phase (SB-C18, 2.1 × 50 mm, 5.0 μm) column. A gradient method was employed to separate the individual GE phenolics using mobile phase A (0.1% formic acid in water) and mobile phase B (Acetonitrile). The gradient elution method with 50% B at 0 min, 90% B at 5 min, held for 2.1 min, back to 50% B at 7.1 min with a flow rate of 0.2 mL/min. An injection volume of 2 μL was used for analysis. […]

[2] = Liver microsomal stability, mouse; type: in vitro ADME, CD1 mouse; conditions: protein 0.5 mg/mL
Procedure: (§1) Pooled liver microsomes from CD1 mouse, IGS Sprague-Dawley rat, Beagle dog, and mixed gender human were used for assays. Incubations (1 mL) consisted of liver microsomes (0.5 mg/mL), NADPH (1 mM) and 100 mM sodium phosphate buffer (pH 7.4). Following pre-incubation (10 min, 37 °C), reactions were initiated by spiking ACN/DMSO (80:20) stock solutions of GE phenolics (5 μL, 10 μM). Samples (100 μL) were withdrawn at 0, 5, 10, 15, 20 and 30 min and quenched with 200 μL acetonitrile containing internal standard. Concomitant NADPH-free control incubations were prepared similarly.

[3] = Liver microsomal stability, human; type: in vitro ADME; conditions: protein 0.5 mg/mL
Procedure: as §1

[4] = 250 mg/kg GE + 50 mg/kg KTZ oral, +KTZ −βgd

AUClast Ratio ([1]; +KTZ +βgd, reference GE group co-administered with KTZ untreated with βgd): 14
AUClast Ratio ([1]; +KTZ +βgd, reference GE group untreated with βgd): 110
AUClast Ratio ([1]; +KTZ −βgd, reference GE group untreated with βgd): 8
Concentration Ratio (Total/Free) of GE Phenolics ([1]; 0 h): 0
Concentration Ratio (Total/Free) of GE Phenolics ([1]; 0.087 h): 48
Concentration Ratio (Total/Free) of GE Phenolics ([1]; 0.167 h): 19
Concentration Ratio (Total/Free) of GE Phenolics ([1]; 0.25 h): 0
Concentration Ratio (Total/Free) of GE Phenolics ([1]; 0.5 h): 83
Concentration Ratio (Total/Free) of GE Phenolics ([1]; 1 h): 1
Concentration Ratio (Total/Free) of GE Phenolics ([1]; 2 h): 16
Concentration Ratio (Total/Free) of GE Phenolics ([1]; 3 h): 0
Concentration Ratio (Total/Free) of GE Phenolics ([1]; 4 h): 0
Concentration Ratio (Total/Free) of GE Phenolics ([1]; 6 h): 0
Concentration Ratio (Total/Free) of GE Phenolics ([1]; 8 h): 0
Concentration Ratio (Total/Free) of GE Phenolics ([1]; 12 h): 0
AUC(0-t) ([1]; 250 mg/kg GE oral, −βgd): 1.92 ng·h/mL
Cmax ([1]; 250 mg/kg GE oral, −βgd): 3.88 ng/mL
Tmax ([1]; 250 mg/kg GE oral, −βgd): 10 min
AUC(0-t) [1, 4]: 15.1 ng·h/mL
Cmax [1, 4]: 12.4 ng/mL
Tmax [1, 4]: 60 min
concentration at 0 h ([1]; 250 mg/kg GE oral, 0 h, −βgd): 0 ng/mL
concentration at 0.087 h ([1]; 250 mg/kg GE oral, 0.087 h, −βgd): 3.17 ± 2.56 ng/mL
concentration at 0.167 h ([1]; 250 mg/kg GE oral, 0.167 h, −βgd): 4.04 ± 5.37 ng/mL
concentration at 0.25 h ([1]; 250 mg/kg GE oral, 0.25 h, −βgd): 0.39 ± 0.55 ng/mL
concentration at 0.5 h ([1]; 250 mg/kg GE oral, 0.5 h, −βgd): 1.26 ± 1.78 ng/mL
concentration at 1 h ([1]; 250 mg/kg GE oral, 1 h, −βgd): 0.67 ± 0.95 ng/mL
concentration at 2 h ([1]; 250 mg/kg GE oral, 2 h, −βgd): 0.38 ± 0.54 ng/mL
concentration at 3 h ([1]; 250 mg/kg GE oral, 3 h, −βgd): 0 ng/mL
concentration at 4 h ([1]; 250 mg/kg GE oral, 4 h, −βgd): 0 ng/mL
concentration at 6 h ([1]; 250 mg/kg GE oral, 6 h, −βgd): 0 ng/mL
concentration at 8 h ([1]; 250 mg/kg GE oral, 8 h, −βgd): 0.05 ± 0.08 ng/mL
concentration at 12 h ([1]; 250 mg/kg GE oral, 12 h, −βgd): 0.37 ± 0.23 ng/mL
concentration at 0 h ([1]; 250 mg/kg GE with 50 mg/kg ketoconazole oral, 0 h, −βgd): 0 ng/mL
concentration at 0.087 h ([1]; 250 mg/kg GE with 50 mg/kg ketoconazole oral, 0.087 h, −βgd): 0.05 ± 0.07 ng/mL
concentration at 0.167 h ([1]; 250 mg/kg GE with 50 mg/kg ketoconazole oral, 0.167 h, −βgd): 0.94 ± 1.33 ng/mL
concentration at 0.25 h ([1]; 250 mg/kg GE with 50 mg/kg ketoconazole oral, 0.25 h, −βgd): 0 ng/mL
concentration at 0.5 h ([1]; 250 mg/kg GE with 50 mg/kg ketoconazole oral, 0.5 h, −βgd): 18600 ng/mL
concentration at 1 h ([1]; 250 mg/kg GE with 50 mg/kg ketoconazole oral, 1 h, −βgd): 12.5 ± 17.6 ng/mL
concentration at 2 h ([1]; 250 mg/kg GE with 50 mg/kg ketoconazole oral, 2 h, −βgd): 75900 ng/mL
concentration at 3 h ([1]; 250 mg/kg GE with 50 mg/kg ketoconazole oral, 3 h, −βgd): 2.33 ± 3.3 ng/mL
concentration at 4 h ([1]; 250 mg/kg GE with 50 mg/kg ketoconazole oral, 4 h, −βgd): 0 ng/mL
concentration at 6 h ([1]; 250 mg/kg GE with 50 mg/kg ketoconazole oral, 6 h, −βgd): 0 ng/mL
concentration at 8 h ([1]; 250 mg/kg GE with 50 mg/kg ketoconazole oral, 8 h, −βgd): 0 ng/mL
concentration at 12 h ([1]; 250 mg/kg GE with 50 mg/kg ketoconazole oral, 12 h, −βgd): 0 ng/mL
remaining at 0.5 h, 10 µM ([2]; CD1, pooled liver microsomes, pH 7.4, substrate 10 µM, n = 2, read-out: % Remaining at 30 min): 3%
Intrinsic Clearance ([2]; mouse liver microsomes, substrate 10 µM, 45 mg protein/g liver): 15.7 mL/min/g Liver
remaining at 0.5 h, 10 µM ([3]; both sexes, pooled liver microsomes, pH 7.4, substrate 10 µM, n = 2, read-out: % Remaining at 30 min): 1%
Intrinsic Clearance ([3]; human liver microsomes, substrate 10 µM, 45 mg protein/g liver): 8.4 mL/min/g Liver
Structure (SMILES): CCCCC/C=C/C(=O)CCc1ccc(O)c(OC)c1 [6S, 6-shogaol]
